Measurements reported in ChEMBL document CHEMBL2074530, “Interaction of ivermectin with multidrug resistance proteins (MRP1, 2 and 3)” (Chem Biol Interact, 2006).

Biological target: Multidrug resistance-associated protein 1 (Homo sapiens, UniProt P33527)
Experiment: TP_TRANSPORTER: inhibition of BODIPY-ivermectin transport in HL60-MRP1 cells
Format: functional, cell-based

Multidrug resistance-associated protein 1, sequence (P33527 whole entry): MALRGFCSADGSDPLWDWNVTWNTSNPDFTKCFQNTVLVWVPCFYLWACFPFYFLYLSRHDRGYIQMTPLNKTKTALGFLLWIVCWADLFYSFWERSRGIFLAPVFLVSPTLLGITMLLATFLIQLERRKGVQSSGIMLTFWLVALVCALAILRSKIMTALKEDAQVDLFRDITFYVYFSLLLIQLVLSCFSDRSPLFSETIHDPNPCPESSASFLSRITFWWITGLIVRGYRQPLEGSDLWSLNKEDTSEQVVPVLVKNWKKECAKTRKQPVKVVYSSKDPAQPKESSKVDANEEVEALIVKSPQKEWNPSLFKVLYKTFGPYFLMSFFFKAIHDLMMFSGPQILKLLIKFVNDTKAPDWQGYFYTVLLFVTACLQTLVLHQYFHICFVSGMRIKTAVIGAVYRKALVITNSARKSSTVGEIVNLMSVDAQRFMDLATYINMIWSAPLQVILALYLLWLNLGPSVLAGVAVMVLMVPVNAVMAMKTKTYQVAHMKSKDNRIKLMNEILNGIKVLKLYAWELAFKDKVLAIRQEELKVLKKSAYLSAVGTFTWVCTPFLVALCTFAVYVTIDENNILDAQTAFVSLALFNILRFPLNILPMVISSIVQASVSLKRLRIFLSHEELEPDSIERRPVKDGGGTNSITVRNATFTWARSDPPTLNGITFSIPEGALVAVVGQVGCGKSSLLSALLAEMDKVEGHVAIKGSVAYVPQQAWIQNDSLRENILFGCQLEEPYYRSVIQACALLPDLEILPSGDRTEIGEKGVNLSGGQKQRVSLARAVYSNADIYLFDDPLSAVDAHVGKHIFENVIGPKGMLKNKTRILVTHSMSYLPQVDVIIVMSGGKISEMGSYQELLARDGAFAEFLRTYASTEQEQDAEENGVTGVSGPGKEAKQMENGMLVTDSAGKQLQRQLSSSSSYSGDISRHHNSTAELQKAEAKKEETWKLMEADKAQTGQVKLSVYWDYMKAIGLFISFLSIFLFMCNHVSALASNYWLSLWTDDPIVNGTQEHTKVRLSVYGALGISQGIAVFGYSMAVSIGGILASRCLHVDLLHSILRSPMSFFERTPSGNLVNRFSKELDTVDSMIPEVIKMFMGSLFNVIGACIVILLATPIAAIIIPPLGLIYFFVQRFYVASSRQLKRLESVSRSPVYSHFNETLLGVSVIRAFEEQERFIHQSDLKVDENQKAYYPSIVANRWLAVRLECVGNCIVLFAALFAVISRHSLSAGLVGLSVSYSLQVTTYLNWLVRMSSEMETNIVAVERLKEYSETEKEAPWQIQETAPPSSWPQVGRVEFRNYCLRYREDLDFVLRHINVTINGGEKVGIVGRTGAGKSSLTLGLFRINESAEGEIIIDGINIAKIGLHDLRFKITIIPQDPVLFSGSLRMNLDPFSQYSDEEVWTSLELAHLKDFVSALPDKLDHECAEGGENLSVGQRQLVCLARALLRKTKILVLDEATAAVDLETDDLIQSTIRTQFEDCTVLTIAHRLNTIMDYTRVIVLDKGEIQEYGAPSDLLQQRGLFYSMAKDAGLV

- Activity: inhibitor [+]
Sequence: IVERMECTIN
